A short description of series [1]: Drug absorption in SD rat, intragastric administration (ig). Type of series: in vivo. The conditions noted are these: SD rat; for AUC0-t / Cmax / T1/2 / Tmax: ig, dosage 21.68 (formula (I)), 23.42 (hydrochloride), 30 mg/kg (p-toluenesulfonate); for absolute bioavailability by ig: revised by dosage, calculated by AUC0-t. As for the experimental part:
The blood samples were collected 0.5, 1.0, 1.5, 2.0, 3.0, 5.0, 7.0, 9.0, 12 and 24 hours after administration, which were then centrifugated respectively to obtain the plasma. The concentration of the drug in the plasma was determined by means of liquid chromatography/tandem mass spectrometer, and the concentration-time curve was obtained.

Series [2] deals with EGFR tyrosine kinases (Homo sapiens, UniProt P00533). Description: Inhibitory effect on EGFR tyrosine kinases (ELISA, Poly(Glu,Tyr) 4:1). The conditions noted are these: result in words. Format: biochemical. As for the experimental part: The plate coated with EGFR tyrosine kinases reaction substrate Poly(Glu, Tyr) 4:1 was washed three times with T-PBS and dried in oven at the temperature of 37° C. Every well was added with the ATP solution diluted with reaction buffer, the compound to be tested with grading concentrations and the tyrosine kinases to be tested in sequence to initiate the reaction. The plate was incubated in a shaker for 1 hour at the temperature of 37° C., and then was washed three times with T-PBS (the phosphate buffer containing 0.05% of Tween with a pH of 7.4). Antibody PY99 was added and the reaction was kept on at 37° C. for 1 hour. The plate was washed three times with T-PBS, HRP labeled goat anti mouse IgG was then added and incubated at 37° C. for 1 hour. The colorimetric solution of OPD (o-phenylenediamine) was added and the mixture was reacted in dark at room temperature for 1-10 min. The reaction was terminated by the addition of 2M of H2SO4. The OD value at wavelength of 492 nm was measured using the VersaMax™ microplate reader (MDC company, USA). The inhibitory effect of the samples on EGFR tyrosine kinases was determined by the following formula: Inhibition %=[1−(OD Value of the compound to be tested −OD Value of the control without enzyme)/(OD Value of the negative control−OD Value of the control without enzyme)]×100%.
(In general: In an ELISA, binding on a coated surface is turned into a signal by an enzyme label.)

Series [3] has as its system human epidermatoid squamous cancer cell A431. Description: Inhibition of proliferation of tumor cell lines (MTT), A431. Format: cell-based. To be noted: 72 h. As for the experimental part: (§1) A DMSO solvent control well and a blank well were set in the plate. […] The incubation was continued for 4 h, and 50 μL of triple-expansion solution (10% SDS-5% of isobutyl alcohol-0.01 mol/L of HCl) was added. The plate was placed in the incubator overnight. The OD value was measured by the microplate reader at wavelength of 570 nm.

In series [4] the test system is human breast cancer cell BT-474. Put plainly: Inhibition of proliferation of tumor cell lines (MTT), BT-474. Format: cell-based. The conditions noted are these: BT-474, MTT, 72 h. As for the experimental part:
as §1

The conditions of series [5]: SD rats, gavage 4 weeks, 20, 50, 100, 500 and 800 mg/(kg·day). As for the experimental part: Five test groups with the dose of 20, 50, 100, 500 and 800 mg/(kg·day) respectively and a solvent control group were set.
Series [6] deals with human ovarian cancer SKOV-3. Description: Anti-tumor effect on human ovarian cancer SKOV-3 transplanted to the BALB/cA nude rat. Type of series: in vivo. As for the experimental part: A tumor SKOV-3 in vigorous growth period was selected and incised into several bits of an even size of about 1.5 mm^3, which was inoculated subcutaneously to the right armpit of the BALB/cA nude rats using trocar under sterile condition. The diameters of the transplanted tumors were measured with a vernier caliper. The animals were grouped randomly when the tumors reached a size of 80-100 mm^3. The tested animals of the group receiving the compounds to be tested were administrated with the compounds by gavage through mouth once daily for 3 weeks continuously. The positive control drug MMC (Mitomycin) was administered by intravenous injection once on the first day with a dose of 5 mg/kg. The negative control group was administered with 0.5% CMC-Na (Carboxymethyl Cellulose Sodium) with a dose of 0.2 mL/per rat. The major axis (a) and the minor axis (b) of the tumors were measured twice every week and the rats were weighed at the same time. According to the formula V=ab^2/2, the tumor volume (mm^3) could be calculated, based on which the relative tumor volume (RTV) was determined (Formula: RTV=Vt/V0, wherein V0 represents the tumor volume measured at the grouping time (i.e. d0), and Vt represents the tumor volume measured each time). The relative tumor proliferation rate T/C (%) was chosen here to evaluate the anti-tumor activity, which can be calculated according to the following formula: T/C(%)=(TRTV/CRTV)×100%
TRTV: RTV of the group receiving the compounds to be tested; CRTV: RTV of negative control group

Series [7] in a line: Drug absorption in SD rat, intravenous injection (iv). Type of series: in vivo. To be noted: 5 mg/kg. As for the experimental part:
The blood samples were collected 5 min, 15 min, 0.5, 1.5, 2.0, 3.0, 4.0, 5.0, 7.0 hours after administration, which were then centrifugated respectively to obtain the plasma. The concentration of the drug in the plasma was determined by means of liquid chromatography/tandem mass spectrometer, and the concentration-time curve was obtained.

For series [8], the system named is human epidermatoid squamous cancer A431. Description: Anti-tumor effect on human epidermatoid squamous cancer A431 transplanted to the BALB/cA nude rat. Type of series: in vivo. To be noted: for Weight of animals (without tumor) / inhibition for tumor % / Weight of tumors x ± SD: 13 days; for Weight of tumors x ± SD: 23 days after inoculation. As for the experimental part:
A well-developed solid tumor A431 was selected and incised into several bits of an even size of 2-3 mm, with one bit being inoculated subcutaneously to the right armpit of each of the BALB/cA nude rats using trocar. 7 days after inoculation, the rats were grouped randomly and were administrated with the compounds by gavage through mouth for 13 days continuously. The major axis (a) and the minor axis (b) of the tumors were measured with a vernier caliper every 4 days. According to the formula V=ab^2/2, the tumor volume (mm^3) could be calculated. The tested animals were neck-off killed 23 days after the inoculation, and anatomized to obtain the tumors. The tumors were weighed and the inhibitory effect of the compounds to be tested was figured out.

Setting [9] is: 5 mg/kg iv once on the first day, after 3 weeks.
The mark [10] stands for this setting: 50 mg/kg ig once daily for 3 weeks.
Where [11] appears, read: 100 mg/kg ig once daily for 3 weeks.
[12] abbreviates: 200 mg/kg ig once daily for 3 weeks.

A word on the Cmax: it is the peak of the concentration-time curve. The term Tmax denotes the time at which the peak concentration occurs. In general, IC50 refers to the concentration needed to halve the response being measured. High values mean weaker potency, low ones greater potency. Consider `C=CC(=O)Nc1ccc2ncnc(Nc3ccc(OCc4cccc(F)c4)c(Cl)c3)c2c1.Cl` [Hydrochloride, The hydrochloride of N-{4-[3-chloro-4-(3-fluoro-benzyloxy)phenyl-amino]-quinazolin-6-yl}-acrylamide], for which, in series [1], the AUC0-t was determined as 1038 ng·h/mL, the Cmax was found to be 289 ng/mL, the T1/2 is reported as 1.27 h and the time of peak concentration (Tmax) was determined as 2.25 h. Further, the “absolute bioavailability by ig” value in series [1] is 9.30%. The “inhibitory activity of EGFR tyrosine kinases” value (“inhibitory activity” below) in series [2] is “excellent inhibitory activity”. It took 840 nM to reach half-maximal inhibition in series [3] (listed as hydrochloride) (IC50). In addition, the 50% inhibitory concentration (IC50) in series [4] (listed as hydrochloride) amounted to 460 nM. For the same compound, in series [5], the food intake entry is listed as “normal food intake” and the “physical signs, appearance, behaviors, activities or shape of dejecta” value (shortened to “physical signs, appearance, behaviors”) is on record as “no abnormality”.
What is called T/C is the ratio of treated to control. As for `CO[C@@]12[C@H](COC(N)=O)C3=C(C(=O)C(C)=C(N)C3=O)N1C[C@@H]1N[C@@H]12` [MMC, Mitomycin, reference compound], in series [6] (setting [9]), the RTV was found to be 3.1 ± 0.5, the T/C worked out at 32.0% and the “Volume of tumor V21” value worked out at 258 ± 77 mm^3.
`C=CC(=O)Nc1ccc2ncnc(Nc3ccc(OCc4cccc(F)c4)c(Cl)c3)c2c1.CS(=O)(=O)O` [Methanesulfonate, Methanesulfonate of N-{4-[3-chloro-4-(3-fluoro-benzyloxy)phenylamino]-quinazolin-6-yl}-acrylamide]: the “inhibitory activity” value in series [2] is “excellent inhibitory activity”. In addition, in series [5], the food intake entry is “normal food intake” and the “physical signs, appearance, behaviors” value is listed as “no abnormality”.
The matching figures for `C=CC(=O)Nc1ccc2ncnc(Nc3ccc(OCc4cccc(F)c4)c(Cl)c3)c2c1.O=C(O)C(=O)O` [Oxalate, Oxalate of N-{4-[3-chloro-4-(3-fluoro-benzyloxy)phenylamino]-quinazolin-6-yl}-acrylamide]: “excellent inhibitory activity”, “normal food intake” and “no abnormality”.
With `C=CC(=O)Nc1ccc2ncnc(Nc3ccc(OCc4cccc(F)c4)c(Cl)c3)c2c1.Cc1ccc(S(=O)(=O)O)cc1` [p-Toluenesulfonate, p-Toluenesulfonate of N-{4-[3-chloro-4-(3-fluoro-benzyloxy)phenylamino]quinazolin-6-yl}-acrylamide], in series [1], the AUC0-t was found to be 1235 ng·h/mL, the highest concentration (Cmax) came to 333 ng/mL, the T1/2 was 1.22 h and the time of peak concentration (Tmax) amounted to 3.38 h. Moreover, the “absolute bioavailability by ig” value in series [1] is 11.07%. For the same compound, in series [7], the AUC0-t worked out at 1860 ng·h/mL, the Cmax is listed as 1745 ng/mL, the T1/2 came to 1.55 h and the Tmax was 4.98 min. Besides, the “inhibitory activity” value in series [2] is listed as “excellent inhibitory activity”. The compound further gave an IC50 in series [3] of 730 nM. The half-maximal inhibitory concentration (IC50) in series [4] was 420 nM. Moreover, in series [8] (25 mg/kg ig), the “Weight of animals (without tumor)” value was 21.58 ± 2.18 g, the “inhibition for tumor %” value is given as 29.99% and the “Weight of tumors x ± SD” value is 0.79 ± 0.20 g. Besides, in series [8] (50 mg/kg ig), the “Weight of animals (without tumor)” value stood at 22.05 ± 1.59 g, the “inhibition for tumor %” value is recorded as 37.15% and the “Weight of tumors x ± SD” value came out at 0.71 ± 0.20 g. In series [8] (100 mg/kg ig), the “Weight of animals (without tumor)” value was found to be 22.35 ± 1.92 g, the “inhibition for tumor %” value was 48.65% and the “Weight of tumors x ± SD” value is listed as 0.58 ± 0.21 g. Also, the “inhibitory effect on the tumors (A431 xenograft)” value in series [8] (result in words) is reported as “significant inhibitory effect”. Besides, in series [6] (setting [10]), the RTV was found to be 5.1 ± 1.7, the T/C was 53.0% and the “Volume of tumor V21” value came out at 421 ± 89 mm^3. In addition, in series [6] (setting [11]), the RTV worked out at 4.3 ± 1.3, the T/C stood at 45.0% and the “Volume of tumor V21” value was determined as 345 ± 88 mm^3. Moreover, in series [6] (setting [12]), the RTV is 3.5 ± 0.8, the T/C is on record as 36.9% and the “Volume of tumor V21” value was 303 ± 72 mm^3. Also, the “tumor inhibitory effect (SKOV-3 xenograft)” value in series [6] (result in words) is given as “conspicuous tumor inhibitory effect”. Moreover, in series [5], the food intake entry is reported as “normal food intake” and the “physical signs, appearance, behaviors” value is on record as “no abnormality”.
“Tartrate of N-{4-[3-chloro-4-(3-fluoro-benzyloxy)phenylamino]-quinazolin-6-yl}-acrylamide”: the “inhibitory activity” value in series [2] was “excellent inhibitory activity”. For the same compound, in series [5], the food intake entry is “normal food intake”; the “physical signs, appearance, behaviors” value is listed as “no abnormality”; the “weight and weight growth of the rats” value is recorded as “basically similar to the control group with no statistical difference”.

The record behind these values is patent publication US8349854B2, “Salts of 4-aniline quinazoline derivative” (priority 2007, dated 2013).
